# In US10583112B2, “Benzo[b]furans as bromodomain inhibitors” (GlaxoSmithKline Intellectual Property (No. 2) Limited, priority 2016, dated 2020):
# Target: T1, BRD4 BD2 (Homo sapiens, UniProt O60885, Y97A)
# T1 construct: BRD4 (1-477) (Y97A) and (Y390A); made in house; host or cells: E. coli (pET15b vector)
# Experiment: BRD4 BD2 TR-FRET competition assay
# Assay type: binding
# Settings: mean where stated, n given; read-out: pIC50 in the BRD4 BD2 TR-FRET assay (converted)
# Description: Bromodomain binding was assessed utilising a time resolved fluorescent resonance energy transfer (TR-FRET) competition assay. […] Europium chelate, conjugated to an anti-6*His antibody, was utilised as the donor fluorophore in the TR-FRET pair.
# In order to generate a TR-FRET signal, donor fluorophore is excited by a laser at λ337 nm, which subsequently leads to emission at λ618 nm.
# In order to monitor differential binding to either BD1 or BD2, single residue mutations of key tyrosines to alanine were made in the acetyl lysine binding pockets. To validate this approach, a double residue mutant tandem domain protein was produced for each of the BET family members.
# Final purification was completed by Superdex 200 prep grade size exclusion column. Purified protein was stored at −80° C. in 20 mM HEPES pH 7.5 and 100 mM NaCl.
# All assay components were dissolved in an assay buffer composing of 50 mM HEPES pH7.4, 50 mM NaCl, 5% Glycerol, 1 mM DTT and 1 mM CHAPS. […] An equal volume of 3 nM of anti-6*His Europium chelate was added to all wells, followed by a further 30 minute incubation at room temperature. TR-FRET was detected using a Perkin Elmer Multimode plate reader, by exciting the donor fluorophore at λ337 nm and subsequently, after a delay of 50 μsecs, measuring emission of the donor and acceptor fluorophores at λ615 nm and λ665 nm, respectively.
# cA four parameter curve fit of the following form was then applied: y=a+((b−a)/(1+(10^x/10^c)^d) • Where ‘a’ is the minimum, ‘b’ is the Hill slope, ‘c’ is the pIC50 and ‘d’ is the maximum.
row,SMILES,IC50 [µM]
1,"CNC(=O)c1cc(C(=O)N[C@@H]2C[C@H]2CCO)cc2c1O[C@@H](CF)[C@@H]2c1ccccc1 (mixture of isomers) [Example 196, (2R,3R)-2-(fluoromethyl)-N^5-((trans)-2-(2-hydroxyethyl)cyclopropyl)-N^7-methyl-3-phenyl-2,3-dihydrobenzofuran-5,7-dicarboxamide (diastereomeric mixture)]",1 to 100
2,"CNC(=O)c1cc(C(=O)N[C@H]2C[C@@H]2CCO)cc2c1O[C@@H](CF)[C@@H]2c1ccccc1 (mixture of isomers) [Example 197, 2R,3R)-2-(fluoromethyl)-N^5-((trans)-2-(2-hydroxyethyl)cyclopropyl)-N^7-methyl-3-phenyl-2,3-dihydrobenzofuran-5,7-dicarboxamide (diastereomeric mixture)]",1 to 100
3,"CNC(=O)c1cc(C(=O)NCCn2cnnc2)cc2c1O[C@H](CF)[C@H]2c1ccccc1 (relative stereo) [Example 133, (Trans)-N^5-(2-(4H-1,2,4-triazol-4-yl)ethyl)-2-(fluoromethyl)-N^7-methyl-3-phenyl-2,3-dihydrobenzofuran-5,7-dicarboxamide]",1 to 100
4,"CNC(=O)c1cc(C(=O)NCCCC2CCNCC2(F)F)cc2c1O[C@@H](C)[C@@H]2c1ccccc1 (single isomer, unassigned) [Example 198, (2S,3R)-N5-(3-((S*)-3,3-difluoropiperidin-4-yl)propyl)-N7,2-dimethyl-3-phenyl-2,3-dihydrobenzofuran-5,7-dicarboxamide]",1 to 100
5,"CNC(=O)c1cc(C(=O)NCC(C)O)cc2c1O[C@H](C)[C@H]2c1ccccc1 (stereo partly drawn) [Example 6, (2R,3S)—N^5-(2-Hydroxypropyl)-N^7,2-dimethyl-3-phenyl-2,3-dihydrobenzofuran-5,7-dicarboxamide]",1 to 100
6,"CNC(=O)c1cc(C(=O)NC2CC2)cc2c1O[C@@H](CO)[C@@H]2c1ccccc1 [Example 104, (2R,3R)-N^5-cyclopropyl-2-(hydroxymethyl)-N^7-methyl-3-phenyl-2,3-dihydrobenzofuran-5,7-dicarboxamide]",1 to 100

# More lines, now with the values ahead:
row,IC50 [µM],SMILES
1,1 to 100,"CNC(=O)c1cc(C(=O)NCCOC)cc2c1O[C@H](CO)[C@H]2c1cccc(OC)c1 (relative stereo) [Example 34, (2S*,3S*)-2-(Hydroxymethyl)-N^5-(2-methoxyethyl)-3-(3-methoxyphenyl)-N^7-methyl-2,3-dihydrobenzofuran-5,7-dicarboxamide]"
2,1 to 100,"CNC(=O)c1cc(C(=O)NCC(C)O)cc2c1O[C@@H](C)[C@H]2c1ccccc1 (stereo partly drawn) [Example 7, (2S,3S)—N^5-(2-hydroxypropyl)-N^7,2-dimethyl-3-phenyl-2,3-dihydrobenzofuran-5,7-dicarboxamide]"
3,1 to 100,"CNC(=O)c1cc(C(=O)N[C@H]2[C@@H]3COC[C@@H]32)cc2c1O[C@H](C)[C@H]2c1cccc(OCCO)c1 [Example 85, (2R,3S)—N^5-((1R,5S,6R)-3-Oxabicyclo[3.1.0]hexan-6-yl)-3-(3-(2-hydroxyethoxy)phenyl)-N^7,2-dimethyl-2,3-dihydrobenzofuran-5,7-dicarboxamide]"
4,1 to 100,"CNC(=O)c1cc(C(=O)NC)c2c(c1)[C@@H](c1ccccc1)[C@H](C)O2 [Example 100, (2S,3R)-N^5,N^7,2-trimethyl-3-phenyl-2,3-dihydrobenzofuran-5,7-dicarboxamide]"
5,1 to 100,"CCNC(=O)c1cc(C(=O)NC)c2c(c1)[C@@H](c1ccccc1)[C@H](C)O2 [Example 101, (2S,3R)-N^5-ethyl-N^7,2-dimethyl-3-phenyl-2,3-dihydrobenzofuran-5,7-dicarboxamide]"
6,1 to 100,"CNC(=O)c1cc(C(=O)NC2CC2)cc2c1O[C@@H](C)[C@@H]2c1ccccc1 [Example 102, (2S,3R)-N^5-cyclopropyl-N^7,2-dimethyl-3-phenyl-2,3-dihydrobenzofuran-5,7-dicarboxamide]"
7,1 to 100,"CNC(=O)c1cc(C(=O)NC2CC2)cc2c1O[C@H](C)[C@@H]2c1ccccc1 [Example 103, (2R,3R)-N^5-cyclopropyl-N^7,2-dimethyl-3-phenyl-2,3-dihydrobenzofuran-5,7-dicarboxamide]"
